Results reported in PubChem BioAssay (NCI).
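GI50 is the concentration that inhibits growth by half. The concentration for full growth arrest is given as TGI.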

What was measured:
Test in all cases: NCI-60 cell line screen, 384-well format; in the data active means GI50 below about 0.43 µM; inactive means the rest
HCT-116 colon = tested on: HCT-116 colon
NCI-H226 lung = tested on: NCI-H226 lung
NCI/ADR-RES ovarian = tested on: NCI/ADR-RES ovarian
MDA-MB-231 breast = tested on: MDA-MB-231 breast
SNB-75 CNS = tested on: SNB-75 CNS
MDA-MB-435 melanoma = tested on: MDA-MB-435 melanoma
RXF 393 renal = tested on: RXF 393 renal
MCF7 breast = tested on: MCF7 breast
SNB-19 CNS = tested on: SNB-19 CNS
HT29 colon = tested on: HT29 colon
EKVX NSCLC = tested on: EKVX NSCLC
LOX IMVI melanoma = tested on: LOX IMVI melanoma
NCI-H522 lung = tested on: NCI-H522 lung
SK-MEL-5 melanoma = tested on: SK-MEL-5 melanoma
SW-620 colon = tested on: SW-620 colon
UACC-257 melanoma = tested on: UACC-257 melanoma
PC-3 prostate = tested on: PC-3 prostate
CAKI-1 renal = tested on: CAKI-1 renal
UACC-62 melanoma = tested on: UACC-62 melanoma
U251 glioblastoma = tested on: U251 glioblastoma
CCRF-CEM leukemia = tested on: CCRF-CEM leukemia
OVCAR-8 ovarian = tested on: OVCAR-8 ovarian
RPMI-8226 leukemia = tested on: RPMI-8226 leukemia
HL-60(TB) leukemia = tested on: HL-60(TB) leukemia
SK-OV-3 ovarian = tested on: SK-OV-3 ovarian
OVCAR-5 ovarian = tested on: OVCAR-5 ovarian
COLO 205 colon = tested on: COLO 205 colon
SN12C renal = tested on: SN12C renal
HCT-15 colon = tested on: HCT-15 colon
MOLT-4 leukemia = tested on: MOLT-4 leukemia
NCI-H23 lung = tested on: NCI-H23 lung
KM12 colon = tested on: KM12 colon
TK-10 renal = tested on: TK-10 renal
M14 melanoma = tested on: M14 melanoma
SK-MEL-28 melanoma = tested on: SK-MEL-28 melanoma
MDA-MB-468 breast = tested on: MDA-MB-468 breast
UO-31 renal = tested on: UO-31 renal
HOP-62 NSCLC = tested on: HOP-62 NSCLC
OVCAR-4 ovarian = tested on: OVCAR-4 ovarian
DU-145 prostate = tested on: DU-145 prostate
NCI-H322M lung = tested on: NCI-H322M lung
NCI-H460 NSCLC = tested on: NCI-H460 NSCLC
MALME-3M melanoma = tested on: MALME-3M melanoma
HS 578T breast = tested on: HS 578T breast
786-0 renal = tested on: 786-0 renal
SF-539 CNS = tested on: SF-539 CNS
SF-268 CNS = tested on: SF-268 CNS
ACHN renal = tested on: ACHN renal
K-562 leukemia = tested on: K-562 leukemia
IGROV1 ovarian = tested on: IGROV1 ovarian
HOP-92 NSCLC = tested on: HOP-92 NSCLC
A549 NSCLC = tested on: A549 NSCLC
SF-295 CNS = tested on: SF-295 CNS
A498 renal = tested on: A498 renal
T-47D breast = tested on: T-47D breast
HCC-2998 colon = tested on: HCC-2998 colon
BT-549 breast = tested on: BT-549 breast
OVCAR-3 ovarian = tested on: OVCAR-3 ovarian

CN(C(=O)c1ccc(F)cc1C(F)(F)F)C1CCN(c2nnc(-c3ccnn3C)c3ccccc23)CC1
12.5 µM: TGI (T-47D breast)
43.9 µM: TGI (HL-60(TB) leukemia)
inactive: GI50 (HCT-116 colon) 47.7 µM | GI50 (NCI-H226 lung) 32.1 µM | GI50 (NCI/ADR-RES ovarian) 33.3 µM | GI50 (MDA-MB-231 breast) 47 µM | GI50 (SNB-75 CNS) 58.5 µM | GI50 (MDA-MB-435 melanoma) 63.1 µM | GI50 (RXF 393 renal) 20.9 µM | GI50 (MCF7 breast) 29.9 µM | GI50 (SNB-19 CNS) 89.5 µM | GI50 (HT29 colon) 76.6 µM | GI50 (EKVX NSCLC) 21.5 µM | GI50 (LOX IMVI melanoma) 46.3 µM | GI50 (NCI-H522 lung) 35.5 µM | GI50 (SK-MEL-5 melanoma) 8.15 µM | GI50 (SW-620 colon) > 100 µM | GI50 (UACC-257 melanoma) 32 µM | GI50 (PC-3 prostate) 44.5 µM | GI50 (CAKI-1 renal) 47.6 µM | GI50 (UACC-62 melanoma) > 100 µM | GI50 (U251 glioblastoma) 54.3 µM | GI50 (CCRF-CEM leukemia) 12.9 µM | GI50 (OVCAR-8 ovarian) 34.7 µM | GI50 (RPMI-8226 leukemia) 22.5 µM | GI50 (HL-60(TB) leukemia) 18.7 µM | GI50 (SK-OV-3 ovarian) 89.2 µM | GI50 (OVCAR-5 ovarian) > 100 µM | GI50 (COLO 205 colon) 42.9 µM | GI50 (SN12C renal) > 100 µM | GI50 (HCT-15 colon) 44.4 µM | GI50 (MOLT-4 leukemia) 13 µM | GI50 (NCI-H23 lung) 30.1 µM | GI50 (KM12 colon) > 100 µM | GI50 (TK-10 renal) > 100 µM | GI50 (M14 melanoma) 58.1 µM | GI50 (SK-MEL-28 melanoma) > 100 µM | GI50 (MDA-MB-468 breast) 3.8 µM | GI50 (UO-31 renal) 58.7 µM | GI50 (HOP-62 NSCLC) 13.9 µM | GI50 (OVCAR-4 ovarian) 67.4 µM | GI50 (DU-145 prostate) 86.2 µM | GI50 (NCI-H322M lung) 28 µM | GI50 (NCI-H460 NSCLC) 35.7 µM | GI50 (MALME-3M melanoma) 65 µM | GI50 (HS 578T breast) > 100 µM | GI50 ([…]-0 renal) > 100 µM | GI50 (SF-539 CNS) > 100 µM | GI50 (SF-268 CNS) 13.9 µM | GI50 (ACHN renal) > 100 µM | GI50 (K-562 leukemia) 15.1 µM | GI50 (IGROV1 ovarian) > 100 µM | GI50 (HOP-92 NSCLC) 48.3 µM | GI50 (A549 NSCLC) 44.8 µM | GI50 (SF-295 CNS) > 100 µM | GI50 (A498 renal) 46.7 µM | GI50 (T-47D breast) 2.73 µM | GI50 (HCC-2998 colon) 22.4 µM | GI50 (BT-549 breast) 26.7 µM | GI50 (OVCAR-3 ovarian) 85.6 µM
74.4 µM: TGI (RXF 393 renal)
21.2 µM: TGI (SK-MEL-5 melanoma)
> 100 µM: TGI (HCT-116 colon) | TGI (NCI-H226 lung) | TGI (NCI/ADR-RES ovarian) | TGI (MDA-MB-231 breast) | TGI (SNB-75 CNS) | TGI (MDA-MB-435 melanoma) | TGI (MCF7 breast) | TGI (SNB-19 CNS) | TGI (HT29 colon) | TGI (EKVX NSCLC) | TGI (LOX IMVI melanoma) | TGI (NCI-H522 lung) | TGI (SW-620 colon) | TGI (UACC-257 melanoma) | TGI (PC-3 prostate) | TGI (CAKI-1 renal) | TGI (UACC-62 melanoma) | TGI (U251 glioblastoma) | TGI (OVCAR-8 ovarian) | TGI (RPMI-8226 leukemia) | TGI (SK-OV-3 ovarian) | TGI (OVCAR-5 ovarian) | TGI (COLO 205 colon) | TGI (SN12C renal) | TGI (HCT-15 colon) | TGI (NCI-H23 lung) | TGI (KM12 colon) | TGI (TK-10 renal) | TGI (M14 melanoma) | TGI (SK-MEL-28 melanoma) | TGI (UO-31 renal) | TGI (HOP-62 NSCLC) | TGI (OVCAR-4 ovarian) | TGI (DU-145 prostate) | TGI (NCI-H322M lung) | TGI (NCI-H460 NSCLC) | TGI (MALME-3M melanoma) | TGI (HS 578T breast) | TGI (786-0 renal) | TGI (SF-539 CNS) | TGI (ACHN renal) | TGI (K-562 leukemia) | TGI (IGROV1 ovarian) | TGI (HOP-92 NSCLC) | TGI (A549 NSCLC) | TGI (SF-295 CNS) | TGI (A498 renal) | TGI (HCC-2998 colon) | TGI (BT-549 breast) | TGI (OVCAR-3 ovarian)
21.3 µM: TGI (MDA-MB-468 breast)
71 µM: TGI (SF-268 CNS)
26.4 µM: TGI (MOLT-4 leukemia)
44.8 µM: TGI (CCRF-CEM leukemia)
